# Measured values: patent publication US9120804B2, “8-substituted 2-amino-[1,2,4] triazolo [1, 5-A] pyrazines as Syk tryrosine kinase inhibitors and GCN2 serin kinase inhibitors” (Merck Patent GmbH, priority 2012, dated 2015)
# Biological target: T1, SYK (Homo sapiens, UniProt P43405)
# T1 construct: 2.5 nM SYK, 400 nM Biotin-Aha-Aha-KEDPDYEWPSAKK
# Experiment: SYK flash plate assay (enzyme assay)
# Assay type: biochemical
# Summary of the method: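 Radiometric Flashplate format: biotinylated peptide substrate (400 nM) and 33P-labelled ATP (10 μM) react with 2.5 nM enzyme for 1 hour at 30 °C in Hepes buffer, pH 7.5. After EDTA quench and washing, counts are taken; staurosporine defines non-specific signal, and IC50 values are derived.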
row,Structure (SMILES),IC50
1,"CC1(C)C(=O)Nc2cc(Nc3nc4c(N5CCC6(CCNC6)C5)nccn4n3)ccc21 (stereo not shown) [E87, 6-[8-(2,7-diaza-spiro[4.4]non-2-yl)-[1,2,4]triazolo[1,5-a]pyrazin-2-ylamino]-3,3-dimethyl-1,3-dihydro-indol-2-one]",< 100 nM
2,"COc1cc(Nc2nc3c(N4CCN(C)CC4)nccn3n2)cc(OC)c1 [C46, (3,5-dimethoxy-phenyl)-[8-(4-methyl-piperazin-1-yl)-[1,2,4]triazolo[1,5-a]pyrazin-2-yl]-amine]",300 to 3000 nM
3,"COc1ccc2c(c1)CCN2c1nccn2nc(Nc3ccc4c(c3)NC(=O)C4(C)C)nc12 [E81, 6-[8-(5-methoxy-2,3-dihydro-indol-1-yl)-[1,2,4]triazolo[1,5-a]pyrazin-2-ylamino]-3,3-dimethyl-1,3-dihydro-indol-2-one]",< 100 nM
4,"CC1(C)CC(=O)Nc2cc(Nc3nc4c(N5CCCC5c5ccccc5)nccn4n3)ccc21 (stereo not shown) [E93, 4,4-dimethyl-7-[8-(2-phenyl-pyrrolidin-1-yl)-[1,2,4]triazolo[1,5-a]pyrazin-2-ylamino]-3,4-dihydro-1H-quinolin-2-one]",300 to 3000 nM
5,"CC1(C)C(=O)Nc2cc(Nc3nc4c(N5C[C@@H](CO)C[C@H]5c5ccccc5)nccn4n3)ccc21 (single isomer, unassigned) [E95, 6-[8-((cis1)-4-hydroxymethyl-2-phenyl-pyrrolidin-1-yl)-[1,2,4]triazolo[1,5-a]pyrazin-2-ylamino]-3,3-dimethyl-1,3-dihydro-indol-2-one]",< 100 nM
6,"CC1(C)C(=O)Nc2cc(Nc3nc4c(NCCN)nccn4n3)ccc21 [E110, 6-[8-(2-amino-ethylamino)-[1,2,4]triazolo[1,5-a]pyrazin-2-ylamino]-3,3-dimethyl-1,3-dihydro-indol-2-one]",300 to 3000 nM
7,"CC1(C)C(=O)Nc2cc(Nc3nc4c(-c5cccc6[nH]ncc56)nccn4n3)ccc21 [C90, 6-[8-(1H-indazol-4-yl)-[1,2,4]triazolo[1,5-a]pyrazin-2-ylamino]-3,3-dimethyl-1,3-dihydro-indol-2-one]",< 100 nM
8,"CC1(C)C(=O)Nc2cc(Nc3nc4c(N5CC[C@]6(CCNC6)C5)nccn4n3)ccc21 [E105, 6-[(S)-8-(2,7-diaza-spiro[4.4]non-2-yl)-[1,2,4]triazolo[1,5-a]pyrazin-2-ylamino]-3,3-dimethyl-1,3-dihydro-indol-2-one]",< 100 nM
9,"CC(=O)NCCNc1nccn2nc(Nc3ccc4c(c3)NC(=O)C4(C)C)nc12 [E103, N-{2-[2-(3,3-dimethyl-2-oxo-2,3-dihydro-1H-indol-6-ylamino)-[1,2,4]triazolo[1,5-a]pyrazin-8-ylamino]-ethyl}-acetamide]",300 to 3000 nM
10,"CC1(C)C(=O)Nc2cc(Nc3nc4c(N5CC[C@@]6(CCNC6)C5)nccn4n3)ccc21 [E106, 6-[(R)-8-(2,7-diaza-spiro[4.4]non-2-yl)-[1,2,4]triazolo[1,5-a]pyrazin-2-ylamino]-3,3-dimethyl-1,3-dihydro-indol-2-one]",< 100 nM
11,"CC1(C)C(=O)Nc2cc(Nc3nc4c(OC5CCNC5)nccn4n3)ccc21 (stereo not shown) [E123, 3,3-dimethyl-6-[8-(pyrrolidin-3-yloxy)-[1,2,4]triazolo[1,5-a]pyrazin-2-ylamino]-1,3-dihydro-indol-2-one]",3000 to 50000 nM
12,CC1(C)C(=O)Nc2cc(Nc3nc4c(N5CCC(c6ncc(C(F)(F)F)[nH]6)CC5)nccn4n3)ccc21 [E59],< 100 nM
13,"CC1=NC2(CCN(c3nccn4nc(Nc5ccc6c(c5)NC(=O)C6(C)C)nc34)CC2)C(=O)N1 [E71, 8-[2-(3,3-dimethyl-2-oxo-2,3-dihydro-1H-indol-6-ylamino)-[1,2,4]triazolo[1,5-a]pyrazin-8-yl]-2-methyl-1,3,8-triaza-spiro[4.5]dec-1-en-4-one]",100 to 300 nM
14,"CC1(C)C(=O)Nc2cc(Nc3nc4c(N5CCC(C(N)=O)CC5)nccn4n3)ccc21 [E40, 1-[2-(3,3-dimethyl-2-oxo-2,3-dihydro-1H-indol-6-ylamino)-[1,2,4]triazolo[1,5-a]pyrazin-8-yl]-piperidine-4-carboxylic acid amide]",< 100 nM
15,"CC1(C)C(=O)Nc2cc(Nc3nc4c(NCCCN)nccn4n3)ccc21 [E122, 6-[8-(3-amino-propylamino)-[1,2,4]triazolo[1,5-a]pyrazin-2-ylamino]-3,3-dimethyl-1,3-dihydro-indol-2-one]",300 to 3000 nM
16,"COc1cccc(Nc2nc3c(-c4ccccc4-c4ccccc4)nccn3n2)c1 [C7, (8-Biphenyl-2-yl-[1,2,4]triazolo[1,5-a]pyrazin-2-yl)-(3-methoxy-phenyl)-amine]",300 to 3000 nM
17,"COCC1CCCN1c1nccn2nc(Nc3ccc4c(c3)NC(=O)C4(C)C)nc12 (stereo not shown) [E83, 6-[8-(2-methoxymethyl-pyrrolidin-1-yl)-[1,2,4]triazolo[1,5-a]pyrazin-2-ylamino]-3,3-dimethyl-1,3-dihydro-indol-2-one]",300 to 3000 nM

row,Structure (SMILES),IC50
1,"CC1(C)CCNc2cc(Nc3nc4c(N5CCN6C(=O)CNC(=O)C6C5)nccn4n3)ccc21 (stereo not shown) [E154, 8-[2-(4,4-dimethyl-1,2,3,4-tetrahydro-quinolin-7-ylamino)-[1,2,4]triazolo[1,5-a]pyrazin-8-yl]-hexahydro-pyrazino[1,2-a]pyrazine-1,4-dione]",< 100 nM
2,"CC1(C)C(=O)Nc2cc(Nc3nc4c(N5CC[C@@]6(CC(=O)NC6=O)C5)nccn4n3)ccc21 [E16, (R)-7-[2-(3,3-dimethyl-2-oxo-2,3-dihydro-1H-indol-6-ylamino)-[1,2,4]triazolo[1,5-a]pyrazin-8-yl]-2,7-diaza-spiro[4.4]nonane-1,3-dione]",< 100 nM
3,"CCOC(=O)c1cnn2c1CN(c1nccn3nc(Nc4ccc5c(c4)NC(=O)C5(C)C)nc13)CC2 [C106, 5-[2-(3,3-dimethyl-2-oxo-2,3-dihydro-1H-indol-6-ylamino)-[1,2,4]triazolo[1,5-a]pyrazin-8-yl]-4,5,6,7-tetrahydro-pyrazolo[1,5-a]pyrazine-3-carboxylic acid ethyl ester]",300 to 3000 nM
4,"CC1Cc2ccccc2N1c1nccn2nc(Nc3ccc4c(c3)NC(=O)C4(C)C)nc12 (stereo not shown) [E137, 3,3-dimethyl-6-[8-(2-methyl-2,3-dihydro-indol-1-yl)-[1,2,4]triazolo[1,5-a]pyrazin-2-ylamino]-1,3-dihydro-indol-2-one]",< 100 nM
5,"C[S+]([O-])c1ccc(Nc2nc3c(-c4ccccc4-c4ccccc4)nccn3n2)cc1 (stereo not shown) [C31, (8-Biphenyl-2-yl-[1,2,4]triazolo[1,5-a]pyrazin-2-yl)-(4-methanesulfinyl-phenyl)-amine]",3000 to 50000 nM
6,"CC1(C)C(=O)Nc2cc(Nc3nc4c(N5CCCC6(C5)NC(=O)NC6=O)nccn4n3)ccc21 (stereo not shown) [C110, 7-[2-(3,3-dimethyl-2-oxo-2,3-dihydro-1H-indol-6-ylamino)-[1,2,4]triazolo[1,5-a]pyrazin-8-yl]-1,3,7-triaza-spiro[4.5]decane-2,4-dione]",300 to 3000 nM
7,"CC1(C)C(=O)Nc2cc(Nc3nc4c(N5CC6CCC(C5)O6)nccn4n3)ccc21 [E67, 3,3-dimethyl-6-[8-(8-oxa-3-aza-bicyclo[3.2.1]oct-3-yl)-[1,2,4]triazolo[1,5-a]pyrazin-2-ylamino]-1,3-dihydro-indol-2-one]",< 100 nM
8,"Cn1cc(-c2nccn3nc(Nc4ccc5c(c4)NC(=O)C54CCC4)nc23)cn1 [E8, 6′-[[8-(1-methylpyrazol-4-yl)-[1,2,4]triazolo[1,5-a]pyrazin-2-yl]amino]spiro[cyclobutane-1,3′-indoline]-2′-one]",< 100 nM
9,"CC1(C)C(=O)Nc2cc(Nc3nc4c(-c5cnn(C6CCNCC6)c5)nccn4n3)ccc21 [E150, 3,3-dimethyl-6-[8-(1-piperidin-4-yl-1H-pyrazol-4-yl)-[1,2,4]triazolo[1,5-a]pyrazin-2-ylamino]-1,3-dihydro-indol-2-one]",< 100 nM
10,"CC1(C)C(=O)Nc2cc(Nc3nc4c(N5CCC(C(N)=O)C5)nccn4n3)ccc21 (stereo not shown) [E3, 1-[2-(3,3-dimethyl-2-oxo-2,3-dihydro-1H-indol-6-ylamino)-[1,2,4]triazolo[1,5-a]pyrazin-8-yl]-pyrrolidine-3-carboxylic acid amide]",< 100 nM
11,"c1ccc(-c2ccccc2-c2nccn3nc(Nc4cccc(N5CCOCC5)c4)nc23)cc1 [C17, (8-Biphenyl-2-yl-[1,2,4]triazolo[1,5-a]pyrazin-2-yl)-(3-morpholin-4-yl-phenyl)-amine]",300 to 3000 nM
12,"CC1(C)C(=O)Nc2cc(Nc3nc4c(N5CCc6ccc(N)cc65)nccn4n3)ccc21 [E102, 6-[8-(6-amino-2,3-dihydro-indol-1-yl)-[1,2,4]triazolo[1,5-a]pyrazin-2-ylamino]-3,3-dimethyl-1,3-dihydro-indol-2-one]",< 100 nM
13,"Cn1cc(-c2nccn3nc(Nc4cc5c(cc4F)C(C)(C)CC(=O)N5)nc23)cn1 [E121, 6-fluoro-4,4-dimethyl-7-[8-(1-methyl-1H-pyrazol-4-yl)-[1,2,4]triazolo[1,5-a]pyrazin-2-ylamino]-3,4-dihydro-1H-quinolin-2-one]",300 to 3000 nM
14,"CC(=O)N1CCC(N(C)c2nccn3nc(Nc4ccc5c(c4)NC(=O)C5(C)C)nc23)CC1 [E14, 6-{8-[(1-acetyl-piperidin-4-yl)-methyl-amino]-[1,2,4]triazolo[1,5-a]pyrazin-2-ylamino}-3,3-dimethyl-1,3-dihydro-indol-2-one]",100 to 300 nM
15,"CC1(C)CC(=O)Nc2cc(Nc3nc4c(N5CC(O)CC5c5ccccc5)nccn4n3)ccc21 (stereo not shown) [E96, 7-[8-(4-hydroxy-2-phenyl-pyrrolidin-1-yl)-[1,2,4]triazolo[1,5-a]pyrazin-2-ylamino]-4,4-dimethyl-3,4-dihydro-1H-quinolin-2-one]",300 to 3000 nM
16,"CC1(C)C(=O)Nc2cc(Nc3nc4c(N[C@H]5C[C@H](N)C5)nccn4n3)ccc21 [C97, 6-[8-(trans-3-amino-cyclobutylamino)-[1,2,4]triazolo[1,5-a]pyrazin-2-ylamino]-3,3-dimethyl-1,3-dihydro-indol-2-one]",300 to 3000 nM
17,"CC1(C)C(=O)Nc2cc(Nc3nc4c(N5CCC6(CNC(=O)C6)C5)nccn4n3)ccc21 (stereo not shown) [E20, 3,3-dimethyl-6-[8-(8-oxo-2,7-diaza-spiro[4.4]non-2-yl)-[1,2,4]triazolo[1,5-a]pyrazin-2-ylamino]-1,3-dihydro-indol-2-one]",< 100 nM
